14 compounds from patent US20240116985A1, “STAPLED PEPTIDES AND METHODS THEREOF” (priority 2020, published 2024) can be followed below.

Read-outs that look alike come from different tables or passages of the source.

In the assay the target is T1, full-length beta-Catenin (Uniprot ID P35222) (Homo sapiens, UniProt P35222).
T1 construct: 10 nM full-length beta-Catenin (Uniprot ID P35222)
T1 sequence (P35222 1-781): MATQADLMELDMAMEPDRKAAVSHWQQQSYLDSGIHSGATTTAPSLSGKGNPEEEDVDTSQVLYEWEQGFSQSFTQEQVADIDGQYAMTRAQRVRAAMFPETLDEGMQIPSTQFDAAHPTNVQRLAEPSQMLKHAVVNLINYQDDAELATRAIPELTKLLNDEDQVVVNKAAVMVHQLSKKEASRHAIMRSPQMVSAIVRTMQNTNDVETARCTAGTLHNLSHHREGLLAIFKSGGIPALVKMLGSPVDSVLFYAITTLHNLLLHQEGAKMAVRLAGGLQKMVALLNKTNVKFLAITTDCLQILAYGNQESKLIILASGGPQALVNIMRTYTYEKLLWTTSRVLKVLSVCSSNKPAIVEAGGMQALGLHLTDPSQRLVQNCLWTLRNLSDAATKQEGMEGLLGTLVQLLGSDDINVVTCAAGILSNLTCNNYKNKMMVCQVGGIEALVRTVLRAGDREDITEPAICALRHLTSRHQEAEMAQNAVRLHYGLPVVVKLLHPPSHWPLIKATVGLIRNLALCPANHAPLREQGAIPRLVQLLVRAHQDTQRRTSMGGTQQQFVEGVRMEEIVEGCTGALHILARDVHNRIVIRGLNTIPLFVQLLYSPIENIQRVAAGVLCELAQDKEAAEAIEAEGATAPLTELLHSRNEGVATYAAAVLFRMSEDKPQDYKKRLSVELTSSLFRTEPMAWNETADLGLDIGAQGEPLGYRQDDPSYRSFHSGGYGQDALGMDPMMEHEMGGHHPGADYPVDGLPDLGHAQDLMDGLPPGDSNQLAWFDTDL
Put plainly: Fluorescence polarization IC50 (beta-catenin / 5FAM-TCF4 10-53 competition). In kind it is binding. A general note: In fluorescence polarisation assays a small probe gives low polarisation when free and higher when bound to something large.

Setting [1] is: fluorescence polarization, read-out: beta-Catenin FP IC50.
The mark [2] stands for this setting: beta-Catenin FP IC50, fluorescence polarization.
The mark [3] stands for this setting: fluorescence polarization, beta-catenin, read-out: FP EC50.

For the compound `CCCCCCCC(=O)N1CCC[C@]12CC=CCCCC1(CCCC=CCCCOC(=O)N3CC[C@@](C(=O)N[C@@H](Cc4ccccc4)C(=O)N[C@@H](Cc4csc5ccccc45)C(=O)N[C@@H](CO)C(N)=O)(C3)NC(=O)[C@H](CO)NC(=O)[C@H](Cc3ccccc3)NC(=O)[C@H](C)NC(=O)[C@H](C)NC(=O)[C@H](CC(=O)O)NC(=O)[C@H](CC(=O)O)NC1=O)NC(=O)[C@H](CC(C)(C)C)NC(=O)[C@H](CC(=O)O)NC2=O` (stereo partly drawn) [I-1355, Oct-PL3-Asp-Npg-B5-Asp-Asp-Ala-Ala-Phe-Ser-PyrS2-Phe-BztA-Ser-NH2], the IC50 under setting [1] was 0.213 µM.
Regarding `CC(=O)N1CCC[C@]12CC=CCCCC1(CCCC=CCCCCCC[C@@](C)(C(=O)N[C@@H](Cc3ccsc3)C(=O)N[C@@H](Cc3csc4ccccc34)C(=O)N[C@H](CO)[C@@H](C)O)NC(=O)[C@H](CCO)NC(=O)[C@H](Cc3ccccc3)NC(=O)[C@H](C)NC(=O)[C@H](C)NC(=O)[C@H](CC(=O)O)NC(=O)[C@H](CC(=O)O)NC1=O)NC(=O)[C@H](CC(C)(C)C)NC(=O)[C@H](CC(=O)O)NC2=O` (stereo partly drawn) [I-1390, Ac-PL3-Asp-Npg-B5-Asp-Asp-Ala-Ala-Phe-Hse-S8-3Thi-BztA-Thro1], the IC50 under setting [1] came to 0.016 µM.
As to `CC(=O)N1CCC[C@]12CC=CCCCC1(CCCC=CCCCCCC[C@@](C)(C(=O)N[C@@H](Cc3ccccc3C(F)(F)F)C(=O)N[C@@H](Cc3csc4ccccc34)C(=O)N[C@H](CO)[C@@H](C)O)NC(=O)[C@H](CCO)NC(=O)[C@H](Cc3ccccc3)NC(=O)[C@H](C)NC(=O)[C@H](C)NC(=O)[C@H](CC(=O)O)NC(=O)[C@H](CC(=O)O)NC1=O)NC(=O)[C@H](CC(C)(C)C)NC(=O)[C@H](CC(=O)O)NC2=O` (stereo partly drawn) [I-1398, Ac-PL3-Asp-Npg-B5-Asp-Asp-Ala-Ala-Phe-Hse-S8-2F3MeF-BztA-Thro1], the IC50 under setting [1] stood at 0.073 µM.
In the case of `CC(=O)N1CCC[C@]12CC=CCCCC1(CCCC=CCCCOC(=O)N3CC[C@@](C(=O)N[C@@H](Cc4ccccc4)C(=O)N[C@@H](Cc4csc5ccccc45)C(=O)N[C@@H](CCC(N)=O)C(N)=O)(C3)NC(=O)[C@H](CC(C)C)NC(=O)[C@H](Cc3ccccc3)NC(=O)[C@H](C)NC(=O)[C@H](C)NC(=O)[C@H](CC(=O)O)NC(=O)[C@H](CC(=O)O)NC1=O)NC(=O)[C@H](CC(C)C)NC(=O)[C@H](CC(=O)O)NC2=O` (stereo partly drawn) [I-1402, Ac-PL3-Asp-Leu-B5-Asp-Asp-Ala-Ala-Phe-Leu-PyrS2-Phe-BztA-Gln-NH2], under setting [1], the IC50 amounted to 0.009 µM.
With `CC(=O)N1CCC[C@]12CC=CCCCC1(CCCC=CCCCOC(=O)N3CC[C@@](C(=O)N[C@@H](Cc4ccsc4)C(=O)N[C@@H](Cc4csc5ccccc45)C(=O)N[C@@H](CC(C)C)C(N)=O)(C3)NC(=O)[C@H](CC(C)C)NC(=O)[C@H](Cc3ccccc3)NC(=O)[C@H](C)NC(=O)[C@H](C)NC(=O)[C@H](CC(=O)O)NC(=O)[C@H](CC(=O)O)NC1=O)NC(=O)[C@H](CC(N)=O)NC(=O)[C@H](CC(=O)O)NC2=O` (stereo partly drawn) [I-1413, Ac-PL3-Asp-Asn-B5-Asp-Asp-Ala-Ala-Phe-Leu-PyrS2-3Thi-BztA-Leu-NH2], the IC50 under setting [2] is 0.074 µM.
Under setting [2], `CC(=O)N1CCC[C@]12CC=CCCCC1(CCCC=CCCCOC(=O)N3CC[C@@](C(=O)N[C@@H](Cc4ccsc4)C(=O)N[C@@H](Cc4csc5ccccc45)C(=O)N[C@@H](CC(C)C)C(N)=O)(C3)NC(=O)[C@H](CC(C)C)NC(=O)[C@H](Cc3ccccc3)NC(=O)[C@H](C)NC(=O)[C@H](C)NC(=O)[C@H](CC(=O)O)NC(=O)[C@H](CC(=O)O)NC1=O)NC(=O)[C@H]([C@@H](C)O)NC(=O)[C@H](CC(=O)O)NC2=O` (stereo partly drawn) [I-1415, Ac-PL3-Asp-Thr-B5-Asp-Asp-Ala-Ala-Phe-Leu-PyrS2-3Thi-BztA-Leu-NH2] registered an IC50 of 0.072 µM.
With `CC(=O)N1CCC[C@]12CC=CCCCC1(CCCC=CCCCOC(=O)N3CC[C@@](C(=O)N[C@@H](Cc4ccccc4Cl)C(=O)N[C@@H](Cc4csc5ccccc45)C(=O)N[C@@H](CC(C)C)C(N)=O)(C3)NC(=O)[C@H](CC(C)C)NC(=O)[C@H](Cc3ccccc3)NC(=O)[C@H](C)NC(=O)[C@H](C)NC(=O)[C@H](CC(=O)O)NC(=O)[C@H](CC(=O)O)NC1=O)NC(=O)[C@H](CC(C)(C)C)NC(=O)[C@H](CC(=O)O)NC2=O` (stereo partly drawn) [I-1416, Ac-PL3-Asp-Npg-B5-Asp-Asp-Ala-Ala-Phe-Leu-PyrS2-2C1F-BztA-Leu-NH2], the IC50 is, setting by setting: under setting [3], 0.057 µM; under setting [1], 0.057 µM.
Turning to `CC(=O)N1CCC[C@]12CC=CCCCC1(CCCC=CCCCOC(=O)N3CC[C@@](C(=O)N[C@@H](Cc4ccccc4Cl)C(=O)N[C@@H](Cc4csc5ccccc45)C(=O)N[C@@H](CC(C)C)C(N)=O)(C3)NC(=O)[C@H](CC(C)C)NC(=O)[C@H](Cc3ccccc3)NC(=O)[C@H](C)NC(=O)[C@H](C)NC(=O)[C@H](CC(=O)O)NC(=O)[C@H](CC(=O)O)NC1=O)NC(=O)[C@H](CC(C)(C)C)NC(=O)[C@H](CC(=O)O)NC2=O` (stereo partly drawn) [I-1417, Ac-PL3-Asp-Npg-B5-Asp-Asp-Ala-Ala-Phe-Leu-PyrS2-2C1F-BztA-Leu-NH2], the IC50 was determined as 0.198 µM under setting [3] and 0.198 µM under setting [1].
For the compound `CC(=O)N1CCC[C@]12CC=CCCCC1(CCCC=CCCCOC(=O)N3CC[C@@](C(=O)N[C@@H](Cc4ccccc4Cl)C(=O)N[C@@H](Cc4csc5ccccc45)C(=O)N[C@@H](CC(C)C)C(N)=O)(C3)NC(=O)[C@H](CC(C)C)NC(=O)[C@H](Cc3ccccc3)NC(=O)[C@H](C)NC(=O)[C@H](C)NC(=O)[C@H](CC(=O)O)NC(=O)[C@H](CC(=O)O)NC1=O)NC(=O)[C@H](CC(C)C)NC(=O)[C@H](CC(=O)O)NC2=O` (stereo partly drawn) [I-1419, Ac-PL3-Asp-Leu-B5-Asp-Asp-Ala-Ala-Phe-Leu-PyrS2-2C1F-BztA-Leu-NH2], the IC50 under setting [3] amounted to 0.152 µM and the IC50 under setting [1] was 0.152 µM.
`CCCC[C@@H]1NC(=O)[C@H](CC(=O)O)NC(=O)[C@]2(CC=CCCCC3(CCCC=CCCCOC(=O)N4CC[C@@](C(=O)N[C@@H](Cc5ccccc5Cl)C(=O)N[C@@H](Cc5csc6ccccc56)C(=O)N[C@@H](CC(C)C)C(N)=O)(C4)NC(=O)[C@H](CC(C)C)NC(=O)[C@H](Cc4ccccc4)NC(=O)[C@H](C)NC(=O)[C@H](C)NC(=O)[C@H](CC(=O)O)NC(=O)[C@H](CC(=O)O)NC3=O)NC1=O)CCCN2C(C)=O` (stereo partly drawn) [I-1420, Ac-PL3-Asp-nLeu-B5-Asp-Asp-Ala-Ala-Phe-Leu-PyrS2-2C1F-BztA-Leu-NH2]: the IC50 by setting is: under setting [3], 0.124 µM; under setting [1], 0.124 µM.
`CCCC[C@@H]1NC(=O)[C@H](CC(=O)O)NC(=O)[C@]2(CC=CCCCC3(CCCC=CCCCOC(=O)N4CC[C@@](C(=O)N[C@@H](Cc5ccccc5Cl)C(=O)N[C@@H](Cc5csc6ccccc56)C(=O)N[C@@H](CC(C)C)C(N)=O)(C4)NC(=O)[C@H](CC(C)C)NC(=O)[C@H](Cc4ccccc4)NC(=O)[C@H](C)NC(=O)[C@H](C)NC(=O)[C@H](CC(=O)O)NC(=O)[C@H](CC(=O)O)NC3=O)NC1=O)CCCN2C(C)=O` (stereo partly drawn) [I-1421, Ac-PL3-Asp-nLeu-B5-Asp-Asp-Ala-Ala-Phe-Leu-PyrS2-2C1F-BztA-Leu-NH2]: the IC50 came out at 0.134 µM under setting [3] and 0.134 µM under setting [1].
Under setting [2], `CC(=O)N1CCC[C@]12CC=CCCCC1(CCCC=CCCCOC(=O)N3CC[C@@](C(=O)N[C@@H](Cc4ccccc4Cl)C(=O)N[C@@H](Cc4csc5ccccc45)C(=O)N[C@@H](CC(C)C)C(N)=O)(C3)NC(=O)[C@H](CC(C)C)NC(=O)[C@H](Cc3ccccc3)NC(=O)[C@H](C)NC(=O)[C@H](C)NC(=O)[C@H](CC(=O)O)NC(=O)[C@H](CC(=O)O)NC1=O)NC(=O)[C@H](CC(N)=O)NC(=O)[C@H](CC(=O)O)NC2=O` (stereo partly drawn) [I-1422, Ac-PL3-Asp-Asn-B5-Asp-Asp-Ala-Ala-Phe-Leu-PyrS2-2C1F-BztA-Leu-NH2] had an IC50 of 0.388 µM.
In turn, `CC(=O)N1CCC[C@]12CC=CCCCC1(CCCC=CCCCOC(=O)N3CC[C@@](C(=O)N[C@@H](Cc4ccccc4Cl)C(=O)N[C@@H](Cc4csc5ccccc45)C(=O)N[C@@H](CC(C)C)C(N)=O)(C3)NC(=O)[C@H](CC(C)C)NC(=O)[C@H](Cc3ccccc3)NC(=O)[C@H](C)NC(=O)[C@H](C)NC(=O)[C@H](CC(=O)O)NC(=O)[C@H](CC(=O)O)NC1=O)NC(=O)[C@H](CO)NC(=O)[C@H](CC(=O)O)NC2=O` (stereo partly drawn) [I-1423, Ac-PL3-Asp-Ser-B5-Asp-Asp-Ala-Ala-Phe-Leu-PyrS2-2C1F-BztA-Leu-NH2] showed an IC50 under setting [2] of 0.389 µM.
As for `CC(=O)N1CCC[C@]12CC=CCCCC1(CCCC=CCCCOC(=O)N3CC[C@@](C(=O)N[C@@H](Cc4ccccc4Cl)C(=O)N[C@@H](Cc4csc5ccccc45)C(=O)N[C@@H](CC(C)C)C(N)=O)(C3)NC(=O)[C@H](CC(C)C)NC(=O)[C@H](Cc3ccccc3)NC(=O)[C@H](C)NC(=O)[C@H](C)NC(=O)[C@H](CC(=O)O)NC(=O)[C@H](CC(=O)O)NC1=O)NC(=O)[C@H]([C@@H](C)O)NC(=O)[C@H](CC(=O)O)NC2=O` (stereo partly drawn) [I-1424, Ac-PL3-Asp-Thr-B5-Asp-Asp-Ala-Ala-Phe-Leu-PyrS2-2C1F-BztA-Leu-NH2], the IC50 under setting [2] stood at 0.235 µM.
